From the OPERA property sets (Mansouri et al. 2018)
≈ marks a conversion by molar mass, not a printed value.

Details: not given

Going from `CCC(=O)CC` to `O=[N+]([O-])c1ccc(O)cc1C(F)(F)F`, the solubility falls from 558 mM (≈ 48100 µg/mL) to 24.1 mM (≈ 5000 µg/mL) (23-fold).

`Oc1c(Cl)ccc(Cl)c1Cl` showed a solubility of 2.28 mM (≈ 450 µg/mL).

Compared with `N#Cc1cccc(N=C=S)c1`, `Cc1ccc(CN)cc1` is lower in logP: 3.13 for the first, 1.46 for the second.

`COc1c(Cl)cc(Cl)c(Cl)c1Cl` and `COc1c(Cl)c(Cl)cc(Cl)c1Cl` are within 0.2 log units of each other in logP: 4.75 for the first, 4.68 for the second.

Going from `O=C(NCc1ccc(F)cc1)C(=O)c1c[nH]c2ccccc12` to `COC(=O)n1c(-c2cscn2)nc2ccccc21`, the logP falls from 2.88 to 2.05.

Compared with `CC(C)c1ccc(Br)c(C(C)C)c1NC(=O)CN(CC(=O)O)CC(=O)O`, `C=CCOc1ccccc1OCC(CNC(C)C)OC(=O)C=CC` (centres undefined) is higher in logP: 0.2 for the first, 3.65 for the second.

First: COc1ccc(N=c2snc3sc(S(N)(=O)=O)nn23)cc1
Second: Nc1ccc(S(=O)(=O)O)cc1
The logP of the first is higher: 2.93 for the first, -2.16 for the second.

`CCOC(=O)n1c(-c2cscn2)nc2ccccc21` and `c1ccc2[nH]c(-c3cscn3)nc2c1` are within 0.2 log units of each other in logP: 2.51 for the first, 2.47 for the second.

First: NC(=S)NN=Cc1ccco1
Second: NC(=O)c1ccc(N)nc1
The logP of the first is higher: 1.64 for the first, 0.7 for the second.

Going from `C=CC(=O)NCCCN(CCO)CCO` to `CC(C)(O)C(=O)Nc1ccc(Cl)cc1`, the logP rises from -0.6 to 2.

First: NC(N)=S
Second: CCC(Oc1ccc(Cl)cc1C)C(=O)O (centres undefined)
The logP of the first is lower: -1.08 for the first, 3.47 for the second.

Going from `C[Si]1(C)O[Si](C)(C)O[Si](C)(C)O[Si](C)(C)O1` to `N#Cc1cc(-c2ccncc2)cnc1Cl`, the logP falls from 6.74 to 1.74.

Same assay, conditions: 20 °C

Compared with `Clc1cccc2c1Oc1c(Cl)c(Cl)c(Cl)c(Cl)c1O2`, `Nc1ccc(Cl)c(Cl)c1` is far higher in solubility: 3.37e-07 mM (≈ 0.00012 µg/mL) for the first, 0.568 mM (≈ 92 µg/mL) for the second.

Compared with `N=C(N)N`, `CC(CO)(CO)[N+](=O)[O-]` is 190-fold higher in solubility: 31.1 mM (≈ 1840 µg/mL) for the first, 5920 mM (≈ 800000 µg/mL) for the second.

Compared with `COCCO[Si](CCCl)(OCCOC)OCCOC`, `C=CCN(CC=C)c1c(C)cc(OC(=O)NC)cc1C` is 310-fold lower in solubility: 78.9 mM (≈ 25000 µg/mL) for the first, 0.255 mM (≈ 70 µg/mL) for the second.

Going from `CS(=O)(=O)F` to `CN(C)c1ccc(C(=O)c2ccc(N(C)C)cc2)cc1`, the solubility falls from 306 mM (≈ 30000 µg/mL) to 1.49 mM (≈ 400 µg/mL) (210-fold).

Compared with `Nc1c(Cl)cc([N+](=O)[O-])cc1Cl`, `O=C(O)Cc1ccccc1` is 3600-fold higher in solubility: 0.0338 mM (≈ 7 µg/mL) for the first, 122 mM (≈ 16600 µg/mL) for the second.

Same assay, conditions: 23 °C

`CCC(C#N)CC#N` (centres undefined) showed a solubility of 203 mM (≈ 22000 µg/mL).

Same assay, conditions: 23.0 °C

`CCCCOCC(C)O` (centres undefined) and `CCC/C=C/C=O` are the same in log10 OH rate constant (cm³/molecule/s): -10.4 for the first, -10.4 for the second.

Work on `c1ccc2c(c1)ccc1ccccc12` yielded a log10 OH rate constant (cm³/molecule/s) of -10.9.

Same assay, conditions: 24.0 °C

Going from `c1ccc(Oc2ccccc2)cc1` to `Clc1cccc2c1Oc1ccccc1O2`, the log10 OH rate constant (cm³/molecule/s) falls from -11 to -11.3.

Going from `Clc1cccc(-c2cccc(Cl)c2)c1` to `C[Si]1(C)O[Si](C)(C)O[Si](C)(C)O[Si](C)(C)O1`, the log10 OH rate constant (cm³/molecule/s) falls from -11.4 to -12.

Same assay, conditions: 25 °C

First: CC1(C)C2CC3OC3(C)C1C2 (centres undefined)
Second: CC1CO1 (centres undefined)
The solubility of the first is 4000-fold lower: 2.55 mM (≈ 388 µg/mL) for the first, 10200 mM (≈ 590000 µg/mL) for the second.

Going from `c1ccc(Oc2ccccc2)cc1` to `Clc1ccccc1-c1ccccc1`, the solubility falls from 0.106 mM (≈ 18 µg/mL) to 0.0256 mM (≈ 4.83 µg/mL) (4.1-fold).

First: c1ccc2nc3ccccc3cc2c1
Second: CC(C)c1ccccc1-c1ccccc1
The solubility of the first is 70-fold higher: 0.214 mM (≈ 38.4 µg/mL) for the first, 0.00306 mM (≈ 0.6 µg/mL) for the second.

Compared with `CS`, `CCC1CO1` (centres undefined) is 3.2-fold higher in solubility: 320 mM (≈ 15400 µg/mL) for the first, 1040 mM (≈ 75000 µg/mL) for the second.

Compared with `CC(C)(C)NCC(O)COc1cccc2c1C[C@H](O)[C@H](O)C2` (some centres undefined), `CC(C)(C)c1cccc(O)c1` is 1.9-fold lower in solubility: 26.9 mM (≈ 8330 µg/mL) for the first, 13.8 mM (≈ 2070 µg/mL) for the second.

Going from `Cc1ccccc1N` to `Cc1ccc(CO)cc1`, the solubility falls from 155 mM (≈ 16600 µg/mL) to 63.1 mM (≈ 7710 µg/mL) (2.5-fold).

Going from `CC(C)N(C(=O)SCC(Cl)=CCl)C(C)C` to `CC(C)NC(C)C`, the solubility rises from 0.0518 mM (≈ 14 µg/mL) to 1090 mM (≈ 110000 µg/mL) (21000-fold).

Going from `O=C([O-])CF.[Na+]` to `COC(C)(C)CC(C)=O`, the solubility falls from 11100 mM to 2150 mM (≈ 280000 µg/mL) (5.2-fold).

Going from `CCCCCN(CCCCC)CCCCC` to `CCCCOC(=O)c1ccc(C(=O)OCCCC)cc1`, the solubility falls from 0.0928 mM (≈ 21.1 µg/mL) to 0.00341 mM (≈ 0.95 µg/mL) (27-fold).

Going from `Clc1cccc(Cl)c1` to `O=[N+]([O-])c1cccc2ccccc12`, the solubility falls from 0.85 mM (≈ 125 µg/mL) to 0.053 mM (≈ 9.18 µg/mL) (16-fold).

Going from `O=C1C2(Cl)C3(Cl)C4(Cl)C(Cl)(Cl)C5(Cl)C3(Cl)C1(Cl)C5(Cl)C24Cl` (centres undefined) to `O=C(O)CCCOc1cc(Cl)c(Cl)cc1Cl`, the solubility rises from 0.0055 mM (≈ 2.7 µg/mL) to 0.148 mM (≈ 42 µg/mL) (27-fold).

Same assay, conditions: 25.0 °C

Compared with `COCC(C)O` (centres undefined), `COCC(C)OC` (centres undefined) is higher in log10 OH rate constant (cm³/molecule/s): -10.7 for the first, -10.5 for the second.

Going from `FC(F)OC(F)F` to `FC(F)=C(F)C(F)(F)F`, the log10 OH rate constant (cm³/molecule/s) rises from -14.5 to -11.7.

First: c1ccc2c(c1)oc1ccccc12
Second: c1cc2ccc3cccc4ccc(c1)c2c34
The log10 OH rate constant (cm³/molecule/s) of the first is lower: -11.4 for the first, -10.3 for the second.

Going from `FC(F)(F)C(F)(F)N(C(F)(F)C(F)(F)F)C(F)(F)C(F)(F)F` to `FC(F)(Cl)C(Cl)Cl`, the log10 OH rate constant (cm³/molecule/s) rises from less than -15.2 to -13.3.

Compared with `CC(C)CCO`, `CC(C)Br` is lower in log10 OH rate constant (cm³/molecule/s): -10.9 for the first, -12.1 for the second.

First: CNC(=O)OC
Second: OCCOCCO
The log10 OH rate constant (cm³/molecule/s) of the first is lower: -11.4 for the first, -10.5 for the second.

First: O=CCCl
Second: ClCCCCl
The log10 OH rate constant (cm³/molecule/s) of the first is higher: -11.5 for the first, -12.1 for the second.

First: CCCCCBr
Second: C=CC1(C)CCC(O)O1 (centres undefined)
The log10 OH rate constant (cm³/molecule/s) of the first is lower: -11.4 for the first, -10.1 for the second.

Same assay, conditions: 26 °C

With `Clc1cc2oc3cc(Cl)c(Cl)cc3c2cc1Cl` the solubility was 2.26e-06 mM (≈ 0.000692 µg/mL).

Same assay, conditions: 27 °C

With `Cc1c2ccccc2cc2ccc3ccccc3c12` the solubility was 0.000272 mM (≈ 0.066 µg/mL).

Same assay, conditions: 27.0 °C

`CC1=CC(=O)C=CC1=O` gave a log10 OH rate constant (cm³/molecule/s) of -10.6.

Same assay, conditions: 30 °C

First: Fc1ccccc1
Second: CCOC(=O)CCl
The solubility of the first is 9.9-fold lower: 16 mM (≈ 1540 µg/mL) for the first, 158 mM (≈ 19400 µg/mL) for the second.
